From PMC11283614 (Veterinary World, 2024)
Converted amounts (≈) assume the structure as drawn. Read-outs that look alike come from different tables or passages of the source. Marks after values point to notes of the source that are not given here.

Legend:
[1] = tested on: SARS-CoV-2 (delta strain); set-up: species or system Syrian hamsters; settings: hamster, in vivo
[2] = in vitro; settings: African green monkey
[3] = tested on: SARS-CoV-2; assay: Blood cell populations (blood smears) of infected hamsters; assay type: in vivo, Syrian hamsters; settings: 7 dpi, therapeutic action
[4] = tested on: SARS-CoV-2; assay: Suppression of SARS-CoV-2 replication in Vero cells, CPE-based titration of supernatant; assay type: cell-based; settings: for Time during which viral activity was inhibited: 100 TCD50/mL SARS-CoV-2, compounds added after 1 h virus incubation; for Suppression of viral activity: up to a dilution of 100 TCD50/ml
[5] = Syrian, in vivo; for Number of dead hamsters after 2 days / Number of dead hamsters after 7 days: hamster
[6] = tested on: SARS-CoV-2 (delta strain); set-up: species or system Syrian hamsters; settings: hamster, in vivo; remark: listed apart in the source
[7] = tested on: SARS-CoV-2; assay: Myelogram / bone marrow cell populations of infected hamsters; assay type: in vivo, Syrian hamsters
[8] = tested on: VERO cells; settings: incubation 24 h

## Cc1cc(C)n(-c2ccc3nnc(SCCOc4ccccc4)n3n2)n1 [10d]
[1]
  Spleen smear: proliferation of late erythroblasts
[2]
  CC50: 480 µg/mL (≈ 1310 µM)
[3]
  Blood cells: Band: 20.7 ± 7.3%
  Blood cells: Basophil: 0.01 ± 0.005%
  Blood cells: Eosinophil: 0.5 ± 0.01%
  Blood cells: Lymphoblast: 0.9 ± 0.1%
  Blood cells: Lymphocyte: 58 ± 6.2%
  Blood cells: Metamyelocyte: 3.1 ± 0.4%
  Blood cells: Monoblast: 1.0 ± 0.1%
  Blood cells: Pathol neutrophil: 0.9 ± 0.1%
  Blood cells: Segment: 13%
[4]
  Time during which viral activity was inhibited: 24 to 72 h
  Suppression of viral activity: almost completely suppressed
[5]; 0.32 mg/kg
  Number of dead hamsters after 2 days: 0
  Number of dead hamsters after 7 days: 0
[5]; 1.6 mg/kg
  Number of dead hamsters after 2 days: 0
  Number of dead hamsters after 7 days: 0
[6]
  Development of lung injury (micro-CT): inhibited

## Cc1cc(C)n(-c2ccc3nnc(SCC(N)=O)n3n2)n1 [10b]
[1]
  Liver pathology (leukocyte / neutrophilic diapedesis): Absence of neutrophils in liver tissues
[2]
  CC50: 240 µg/mL (≈ 791 µM)
[3]
  Blood cells: Band: 27 ± 8.6%
  Blood cells: Destroyed: 0.9 ± 0.02%
  Blood cells: Eosinophil: 0.1 ± 0.01%
  Blood cells: Lymphoblast: 4.0 ± 0.3%
  Blood cells: Lymphocyte: 42.3 ± 6.7%
  Blood cells: Metamyelocyte: 1.0 ± 0.1%
  Blood cells: Monocyte: 3.9 ± 0.9%
  Blood cells: Myeloid: 1 ± 0.05%
  Blood cells: Pathol neutrophil: 2.8 ± 0.7%
  Blood cells: Segment: 20%
[4]
  Time during which viral activity was inhibited: 24 to 72 h
  Suppression of viral activity: almost completely suppressed
[5]; 0.16 mg/kg
  Number of dead hamsters after 2 days: 0
  Number of dead hamsters after 7 days: 0
[5]; 0.8 mg/kg
  Number of dead hamsters after 2 days: 0
  Number of dead hamsters after 7 days: 1 ^*
  Autopsy and histological findings in dead hamster: * Autopsy and histological studies revealed massive hemorrhages in the abdominal cavity and leukopenia. In all investigated preparations except 10b, no lethal effect was observed throughout the experiment. No abnormal appearance or behavior was noted in all investigated groups.
[6]
  Development of lung injury (micro-CT): inhibited

## CSc1nnc2cc(C)nc(SC)n12 [5a]
[2]
  CC50: 240 µg/mL (≈ 1060 µM)

## Cc1cc(C)n(-c2ccc3nnc(C)n3n2)n1 [compound 8]
[1]
  LN section histology (H&E): preserved structure and cellularity
  Lung pathology (diffuse lymphocytic-macrophage infiltrates): Mild pathological manifestations
[2]
  CC50: 480 µg/mL (≈ 2100 µM)
[3]
  Blood cells: Band: 10.0 ± 2.7%
  Blood cells: Destroyed: 1.9 ± 0.3%
  Blood cells: Eosinophil: 0.5 ± 0.1%
  Blood cells: Lymphoblast: 1.1 ± 0.1%
  Blood cells: Lymphocyte: 77.2 ± 8.1%
  Blood cells: Metamyelocyte: 2.0 ± 0.6%
  Blood cells: Monoblast: 2.9 ± 0.5%
  Blood cells: Monocyte: 1.2 ± 0.1%
  Blood cells: Segment: 4%
[4]
  Time during which viral activity was inhibited: 24 to 72 h
  Suppression of viral activity: almost completely suppressed
[5]; 0.3 mg/kg
  Number of dead hamsters after 2 days: 0
  Number of dead hamsters after 7 days: 0
[5]; 1.5 mg/kg
  Number of dead hamsters after 2 days: 0
  Number of dead hamsters after 7 days: 0
[6]
  Development of lung injury (micro-CT): inhibited

## COC(=O)CSc1nnc2cc(C)nc(SC)n12 [5c]
[2]
  CC50: 40 µg/mL (≈ 141 µM)

## CSc1nc(C)cc2nnc(SCCOc3ccccc3)n12 [5d]
[7]; 9th day
  Effect on bone marrow changes seen in the positive control group: does not obstruct the similar bone marrow changes
[7]; 18th day
  Recovery of bone marrow cell populations compared to the positive control: more rapid recovery of all cell populations
[7]; infected hamsters, 9 dpi
  Myelogram: Band: 26.1 ± 4.4%
  Myelogram: Basophil: 0.1 ± 0.04%
  Myelogram: Basophil erythroblast: 4.6 ± 0.9%
  Myelogram: Destroyed: 3.2 ± 0.3%
  Myelogram: Eosinophil: 3.2 ± 0.4%
  Myelogram: Limph.patol.: 1.1 ± 0.4%
  Myelogram: Lymphoblast: 3.5 ± 0.6%
  Myelogram: Lymphocyte: 8.9 ± 1.2%
  Myelogram: Macroph. Island: 1.6 ± 0.03%
  Myelogram: Macroph. Resident: 1.6 ± 0.05%
  Myelogram: Megakaryoblast: 1.6 ± 0.02%
  Myelogram: Megakaryocyte azurophil: 1.6 ± 0.1%
  Myelogram: Megakaryocyte basophil: 1.6 ± 0.1%
  Myelogram: Metamyelocyte: 5.2 ± 1.0%
  Myelogram: Mitos: 1.6 ± 0.02%
  Myelogram: Monoblast: 2.9 ± 0.7%
  Myelogram: Monocyte: 3.8 ± 0.8%
  Myelogram: Myeloid: 3.9 ± 0.5%
  Myelogram: Ortochrom erythroblast: 8.8 ± 0.9%
  Myelogram: Pathol neutrophil: 2.1 ± 0.5%
  Myelogram: Polychromatophil erythroblast: 5.9 ± 2.1%
  Myelogram: Proerythroblast: 3.1 ± 0.5%
  Myelogram: Segment: 3.7 ± 0.5%
[7]; infected hamsters, 18 dpi
  Myelogram: Band: 15.6 ± 3.1 %
  Myelogram: Basophil: 0.01 ± 0.01%
  Myelogram: Destroyed: 0.1 ± 0.01%
  Myelogram: Eosinophil: 0.2 ± 0.01%
  Myelogram: Limph.patol.: 0.1 ± 0.04 %
  Myelogram: Lymphoblast: 2.3 ± 0.5%
  Myelogram: Lymphocyte: 5.2 ± 0.8%
  Myelogram: Macroph. Island: 0.1 ± 0.01%
  Myelogram: Macroph. Resident: 0.1 ± 0.01%
  Myelogram: Megakaryoblast: 0.03 ± 0.02%
  Myelogram: Megakaryocyte azurophil: 0.01 ± 0.01%
  Myelogram: Megakaryocyte basophil: 0.01 ± 0.01%
  Myelogram: Metamyelocyte: 20.1 ± 4.3%
  Myelogram: Mitos: 0.01 ± 0.01%
  Myelogram: Monoblast: 1.0 ± 0.02%
  Myelogram: Monocyte: 1.5 ± 0.4%
  Myelogram: Myeloid: 14.3 ± 2.7%
  Myelogram: Pathol neutrophil: 0.1 ± 0.01 %
  Myelogram: Polychromatophil erythroblast: 17.9 ± 2.3 %
  Myelogram: Segment: 3.3 ± 0.3 %
[1]
  BM section histology (H&E): preserved structure and cellularity
  BM smear: restored erythroid population
[2]
  CC50: 320 µg/mL (≈ 963 µM)
[3]
  Blood cells: Band: 19 ± 4.8%
  Blood cells: Basophil: 0.01%
  Blood cells: Destroyed: 1.0%
  Blood cells: Eosinophil: 0.1 ± 0.05%
  Blood cells: Lymphoblast: 0.9 ± 0.2%
  Blood cells: Lymphocyte: 65 ± 9.3%
  Blood cells: Metamyelocyte: 2 ± 0.5%
  Blood cells: Monocyte: 2.1 ± 0.3%
  Blood cells: Myeloid: 1.1 ± 0.1%
  Blood cells: Segment: 8.8%
[4]
  Time during which viral activity was inhibited: 24 to 72 h
  Suppression of viral activity: almost completely suppressed
[5]; 0.2 mg/kg
  Number of dead hamsters after 2 days: 0
  Number of dead hamsters after 7 days: 0
[5]; 1 mg/kg
  Number of dead hamsters after 2 days: 0
  Number of dead hamsters after 7 days: 0
[6]
  Development of lung injury (micro-CT): inhibited

## Cc1cc2nnc(SCCOc3ccccc3)n2c(SCc2ccccc2)n1 [6d]
[8]
  Monolayer preservation of VERO cells (toxicity): -
[2]
  CC50: 320 µg/mL (≈ 783 µM)

## CSc1nnc2ccc(-n3nc(C)cc3C)nn12 [10a]
[2]
  CC50: 40 µg/mL (≈ 154 µM)

## CSc1nnc2cc(C)nc(SCc3ccccc3)n12 [6a]
[2]
  CC50: 20 µg/mL (≈ 66.1 µM)
